Results on two compounds are retold here after patent US20250195488A1, “MEDICINE CONTAINING VITAMIN D DERIVATIVE OR PHARMACEUTICALLY ACCEPTABLE SALT OR SOLVATE THEREOF, USED IN COMBINATION WITH IMMUNOMODULATORY SUBSTANCE” (TEEJIN PHARMA LIMITED, priority 2022, published 2025).

Experiment [1] concerns rat oligodendrocyte progenitor cells. Kind of experiment: Promotive activity of rat oligodendrocyte progenitor cell differentiation-2 (immunostaining of MBP). Type of experiment: cell-based. The following applies: Test 2; vitamin D derivative 2 μM, T3 30 nM, 4 days; DMSO 0.07. The method, then:
The promotive activity of oligodendrocyte progenitor cell (OPC) differentiation of the vitamin D derivatives was evaluated by immunostaining of MBP.
Subsequently, oligodendrocyte progenitor cell separation medium was added to the flask, and the mixture was similarly shaken for about 22 hours (37° C., 200 rpm), and the supernatant was collected to prepare oligodendrocyte progenitor cells.

Another experiment deals with T1, human VDR (Homo sapiens, UniProt P11473).
T1 construct: expressed in transfected cells; host or cells: HOS cells (ATCC), human osteoblast line; pcDNA3 expression vector
T1 sequence (P11473 1-427): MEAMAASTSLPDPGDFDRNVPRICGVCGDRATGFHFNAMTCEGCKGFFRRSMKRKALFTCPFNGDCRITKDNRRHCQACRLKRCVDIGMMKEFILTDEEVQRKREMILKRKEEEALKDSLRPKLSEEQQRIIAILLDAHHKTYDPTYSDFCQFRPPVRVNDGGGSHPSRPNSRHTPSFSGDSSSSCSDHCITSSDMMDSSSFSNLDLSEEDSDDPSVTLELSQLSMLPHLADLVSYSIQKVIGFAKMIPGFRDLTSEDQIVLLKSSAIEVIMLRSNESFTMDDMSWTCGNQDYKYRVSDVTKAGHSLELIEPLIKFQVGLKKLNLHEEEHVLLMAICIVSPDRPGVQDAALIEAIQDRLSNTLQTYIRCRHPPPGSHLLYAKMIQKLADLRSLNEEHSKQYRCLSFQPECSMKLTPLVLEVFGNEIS
T1 sequence (P19793 1-462 partner): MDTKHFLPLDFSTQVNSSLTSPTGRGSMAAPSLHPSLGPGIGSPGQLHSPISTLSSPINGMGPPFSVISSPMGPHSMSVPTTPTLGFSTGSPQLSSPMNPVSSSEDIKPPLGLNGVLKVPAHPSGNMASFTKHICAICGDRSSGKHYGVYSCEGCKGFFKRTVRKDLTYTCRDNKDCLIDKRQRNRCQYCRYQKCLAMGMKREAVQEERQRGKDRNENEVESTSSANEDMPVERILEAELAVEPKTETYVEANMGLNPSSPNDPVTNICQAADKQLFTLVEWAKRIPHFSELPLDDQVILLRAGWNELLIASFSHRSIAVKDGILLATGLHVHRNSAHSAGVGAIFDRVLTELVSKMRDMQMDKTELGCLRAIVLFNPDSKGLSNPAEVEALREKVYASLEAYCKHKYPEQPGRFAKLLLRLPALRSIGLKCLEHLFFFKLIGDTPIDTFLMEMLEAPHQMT
The experiment in a line: Evaluation of VDR transcription activity in human osteoblasts (HOS cells), luciferase reporter. Format: cell-based. Conditions: read-out: Activity (EC50 of VDR transcriptional activity).

Method for human VDR: (1) A reporter vector was constructed using pGL4.26 vector (Promega Corporation) and incorporating a sequence of DR3 (×4) gene promoter portion upstream of the luciferase gene. An expression vector was constructed by inserting a DNA sequence encoding human VDR and human RXRα into pcDNA3 vector (Thermo Fisher Scientific, Inc.). Human RenillaLuc-CMV vector (Promega Corporation) was used for the correction of gene transfer efficiency. HOS cells (ATCC) were cultured in DMEM medium containing 10% FBS under the condition of 37° C. and 5% CO2, and passaged every 2 or 3 days. (2) The passaged cells were collected by centrifugation and dispersed in phenol red free DMEM medium containing deactivated and 5% charcoal-treated fetal bovine serum (CSS) at a density of 4×10^5 cells/mL, and then the various vectors described in (1) were introduced using Lipofectamine LTX (Thermo Fisher Scientific, Inc.) reagent at a ratio of 0.25 mL per 1 mL of the cell solution. […] (3) After the incubation for 21 hours under the condition of 37° C. and 5% CO2, the luciferase activity was measured by multi-label counter EnVision (PerkinElmer, Inc.) using Dual-Glo Luciferase Assay kit (Promega Corporation). At the same time, the activity of Renilla luciferase was measured and used to correct the gene transfer efficiency.

For the compound `C[C@H](CN1CC[C@@H](CC(F)F)C1)[C@H]1CC[C@H]2/C(=C/C=C3C[C@@H](O)C[C@H](O)C3)CCC[C@]12C` [Compound B043, (1R,3R)-5-(2-((1R,3aS,7aR,E)-1-((S)-1-((S)-3-(2,2-difluoroethyl)pyrrolidin-1-yl)propan-2-yl)-7a-methyloctahydro-4H-inden-4-ylidene)ethylidene)cyclohexane-1,3-diol], the “mean (number of MBP-positive cells/number of Hoechst33342-positive cells)” value in experiment [1] is given as 0.53.

Consider `C[C@H](CN1CC[C@@H](F)C1)[C@H]1CC[C@H]2/C(=C/C=C3C[C@@H](O)C[C@H](O)C3)CCC[C@]12C` [Compound B013, (1R,3R)-5-(2-((1R,3aS,7aR,E)-1-((S)-1-((R)-3-fluoropyrrolidin-1-yl)propan-2-yl)-7a-methyloctahydro-4H-inden-4-ylidene)ethylidene)cyclohexane-1,3-diol], for which the EC50 on human VDR lay within 0.1 to 1 µM.
